# Experimental data taken from ChEMBL document CHEMBL1201862, “PubChem BioAssay data set” (2004).
#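 Each compound was tested at five concentrations against cells in 96-well plates for 48 hours. GI50 is the concentration that inhibits growth by half.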 Active and inactive are the calls of the source. Rule as the data show it: active = GI50 up to about 1.1 µM and inactive = higher.
# Tests used:
# Test in all cases: NCI-60 cell line screen, 48 h
# SR = system: SR
# UACC-257 = system: UACC-257
# MDA-MB-435 = system: MDA-MB-435
# NCI/ADR-RES = system: NCI/ADR-RES
# MCF7 = system: MCF7
# NCI-H226 = system: NCI-H226
# HOP-92 = system: HOP-92
# RXF 393 = system: RXF 393
# OVCAR-3 = system: OVCAR-3
# SNB-75 = system: SNB-75
# HCC 2998 = system: HCC 2998
# ACHN = system: ACHN
# NCI-H522 = system: NCI-H522
# HOP-18 = system: HOP-18
# DLD-1 = system: DLD-1
# SNB-78 = system: SNB-78
# KM-20L2 = system: KM-20L2
# DMS-114 = system: DMS-114
# M19-MEL = system: M19-MEL
# LXFL 529 = system: LXFL 529
SMILES,GI50 (SR),GI50 (UACC-257),GI50 (MDA-MB-435),GI50 (NCI/ADR-RES),GI50 (MCF7),GI50 (NCI-H226),GI50 (HOP-92),GI50 (RXF 393),GI50 (OVCAR-3),GI50 (SNB-75),GI50 (HCC 2998),GI50 (ACHN),GI50 (NCI-H522),GI50 (HOP-18),GI50 (DLD-1),GI50 (SNB-78),GI50 (KM-20L2),GI50 (DMS-114),GI50 (M19-MEL),GI50 (LXFL 529)
O=C(N/N=C\c1cccc2ccccc12)Nc1ccccc1,> 100 µM (inactive),> 100 µM (inactive),> 100 µM (inactive),> 100 µM (inactive),> 100 µM (inactive),> 100 µM (inactive),> 100 µM (inactive),> 100 µM (inactive),> 100 µM (inactive),> 100 µM (inactive),–,–,–,–,–,–,–,–,–,–
COc1ccc(N2CN(C)CSC2=S)cc1,–,> 100 µM (inactive),43.3 µM (inactive),> 100 µM (inactive),89.7 µM (inactive),–,–,> 100 µM (inactive),4.73 µM (inactive),> 100 µM (inactive),> 100 µM (inactive),> 100 µM (inactive),29.7 µM (inactive),–,–,–,–,–,–,–
CCCCCCCCCOCC(COP(=O)([O-])OCC[N+](C)(C)C)OC (stereo not given),–,> 100 µM (inactive),–,> 100 µM (inactive),68.7 µM (inactive),99.1 µM (inactive),> 100 µM (inactive),> 100 µM (inactive),> 100 µM (inactive),> 100 µM (inactive),> 100 µM (inactive),–,> 100 µM (inactive),> 100 µM (inactive),> 100 µM (inactive),> 100 µM (inactive),> 100 µM (inactive),> 100 µM (inactive),> 100 µM (inactive),–
COC(=O)Cc1c(-c2c(CC(=O)OC)c3ccccc3n2C2OC(COC(C)=O)C(OC(C)=O)C(OC(C)=O)C2OC(C)=O)[nH]c2ccccc12 (stereo not given),> 100 µM (inactive),> 100 µM (inactive),> 100 µM (inactive),–,–,–,> 100 µM (inactive),–,> 100 µM (inactive),–,> 100 µM (inactive),–,52 µM (inactive),–,–,–,–,–,–,–
CC(=O)Nc1ccc2[nH]c(C(=O)N3CC(CCl)c4c3cc(N)c3ccccc43)cc2c1 (stereo not given),< 0.01 µM (active),0.0172 µM (active),0.0147 µM (active),0.0182 µM (active),0.0107 µM (active),< 0.0135 µM (active),< 0.0191 µM (active),< 0.01 µM (active),0.0189 µM (active),< 0.01 µM (active),< 0.01 µM (active),< 0.01 µM (active),< 0.01 µM (active),–,–,–,–,–,–,–
NS(=O)(=O)C1CCCCC1C(=O)NNC(=O)C(=O)Nc1nnc(S)[nH]1 (stereo not given),> 100 µM (inactive),> 100 µM (inactive),–,–,–,> 100 µM (inactive),> 100 µM (inactive),> 100 µM (inactive),–,> 100 µM (inactive),> 100 µM (inactive),> 100 µM (inactive),> 100 µM (inactive),–,> 100 µM (inactive),> 100 µM (inactive),> 100 µM (inactive),> 100 µM (inactive),> 100 µM (inactive),> 100 µM (inactive)
Cc1ccc2c(=O)c3ccccc3sc2c1,79.4 µM (inactive),–,–,–,–,> 100 µM (inactive),–,> 100 µM (inactive),> 100 µM (inactive),–,> 100 µM (inactive),> 100 µM (inactive),> 100 µM (inactive),6.19 µM (inactive),> 100 µM (inactive),–,> 100 µM (inactive),–,> 100 µM (inactive),> 100 µM (inactive)
O=C1CNC(=O)N1 [HYDANTOIN],–,> 1120 µM (inactive),–,> 1120 µM (inactive),> 1120 µM (inactive),11.2 µM (inactive),> 11.2 µM (inactive),> 1120 µM (inactive),> 1120 µM (inactive),177 µM (inactive),> 1120 µM (inactive),–,> 1120 µM (inactive),> 1120 µM (inactive),> 1120 µM (inactive),> 1120 µM (inactive),> 1120 µM (inactive),> 1120 µM (inactive),> 1120 µM (inactive),–
O=[PH](O)c1cccs1,–,–,–,–,–,–,57 µM (inactive),> 100 µM (inactive),–,–,–,> 100 µM (inactive),> 100 µM (inactive),> 100 µM (inactive),> 100 µM (inactive),–,> 100 µM (inactive),> 100 µM (inactive),> 100 µM (inactive),> 100 µM (inactive)
CC(=O)CC(=O)CCC(=O)O [SUCCINYLACETONE],> 100 µM (inactive),> 100 µM (inactive),–,–,–,> 100 µM (inactive),< 0.01 µM (active),> 100 µM (inactive),–,< 0.01 µM (active),> 100 µM (inactive),> 100 µM (inactive),> 100 µM (inactive),> 100 µM (inactive),> 100 µM (inactive),> 100 µM (inactive),> 100 µM (inactive),> 100 µM (inactive),> 100 µM (inactive),–
O=C1CCC(c2ccc(Cl)cc2)=NN1c1nsc2ccccc12,22.3 µM (inactive),22.9 µM (inactive),–,–,–,–,21.5 µM (inactive),11.5 µM (inactive),17.7 µM (inactive),5.77 µM (inactive),18.2 µM (inactive),34.1 µM (inactive),–,18.7 µM (inactive),–,25.4 µM (inactive),35.2 µM (inactive),27.9 µM (inactive),37.2 µM (inactive),26.8 µM (inactive)
COc1ccc(-c2c3ccccc3c(-c3ccc(OCCCCCBr)cc3)c3ccccc23)cc1,> 100 µM (inactive),–,–,–,–,> 100 µM (inactive),> 100 µM (inactive),–,> 100 µM (inactive),–,> 100 µM (inactive),> 100 µM (inactive),> 100 µM (inactive),–,> 100 µM (inactive),–,> 100 µM (inactive),> 100 µM (inactive),> 100 µM (inactive),> 100 µM (inactive)
CO/N=C1/c2sccc2[C@H](NC(=O)C(F)(F)F)[C@@H]1O,> 100 µM (inactive),> 100 µM (inactive),> 100 µM (inactive),> 100 µM (inactive),> 100 µM (inactive),> 100 µM (inactive),> 100 µM (inactive),> 100 µM (inactive),> 100 µM (inactive),> 100 µM (inactive),> 100 µM (inactive),–,–,–,–,–,–,–,–,–
CCCCCCCCCCCCCCCC(=O)OC1C(O)C(CO)OC(OC)C1NC(=O)N(CCCl)N=O (stereo not given),4.46 µM (inactive),16.3 µM (inactive),–,–,–,16.6 µM (inactive),–,–,18.7 µM (inactive),12 µM (inactive),–,8.81 µM (inactive),10.7 µM (inactive),15.8 µM (inactive),16.2 µM (inactive),19.5 µM (inactive),17.9 µM (inactive),12.1 µM (inactive),15.9 µM (inactive),12.6 µM (inactive)
